Assay results from patent publication US20100210697A1, “PHARMACEUTICAL COMPOSITION FOR TREATMENT OF CATARACT” (R-TECH UENO, LTD., priority 2007, published 2010).

Key:
STZ induced diabetic rat = assay: Cataract onset in STZ induced diabetic rats, repeated instillation into both eyes; type: in vivo, Rats (Crj: Wistar); settings: for number of onset eyes / onset of cataract (conclusion in words): Day 46; for number of onset eyes / onset rate (Day 46): instilled 10 μL per eye, 3 times a day, test substance 1 0.01 wt %, test substance 2 2 wt %; for number of onset eyes: onset eyes/total eyes; for onset of cataract (conclusion in words): STZ induced diabetic rats, instillation; for onset rate (Day 46): saline pathology group 100%
Protocol: Rats (Crj: Wistar, male, 5-week-old) were purchased, grouped after acclimation for 6 days, and fasted for 20 hr.
After the fasting, Streptosotocin (hereinafter STZ, 50 mg/kg (2 mL/kg)) was administered to the tail vein.
After 24 hr from the STZ administration, the blood glucose level was measured, and the rats with blood glucose level of not less than 250 mg/dL were considered as STZ induced diabetic rat (measurement tool: ACCU-CHEK Aviva, Roche Diagnostics K.K.) (group 2-group 4).
From the next day of the blood glucose level measurement, saline, test substance 1 and test substance 2 were repetitively instilled to groups 2-4 into both eyes (10 μL for each eye) 3 times a day (9:00, 13:00, 17:00). The cataract suppression rate of the test substance at the time point when the onset of the pathology model group 2 reached 100% (Day 46) was determined. Saline was repetitively instilled in the same manner to the group free of streptosotocin administration (group 1).
In addition, the day when the nuclear part of the crystalline lens became obviously opaque was taken as the cataract onset day.
cataract onset rate: (number of cataract onset eyes/total number of eyes ×100)

[1] = test system: rats given powder feed with 30% of galactose; assay: Cataract onset in rats fed 30% galactose feed, repeated oral administration; type: in vivo, Rats (Crj: Wistar)
From the text: Rats (Crj: Wistar, male, 3-week-old) were purchased and, from the next day (Day 0), a mixture of a powder feed (CRF-1, Oriental Yeast Co., ltd.) and 30% of galactose (special grade, Wako Pure Chemical Industries, Ltd., Lot# 075-00035) was freely given. From Day 0, test substance 1 was repetitively administered orally.
dissolution liquid: 0.5% methylcellulose solution test substance 1: N-{4-[2-(4-hydrazinocarbonylmethylphenyl)ethyl]-1,3-thiazol-2-yl}acetamide (compound described in Production Example)

Structure (SMILES) | number of onset eyes (STZ induced diabetic rat) | onset of cataract (conclusion in words) (STZ induced diabetic rat) | onset rate (Day 46) (STZ induced diabetic rat) [%] | number of onset eyes (Day 20) ([1]; Day 20, oral, 0.5 wt %, 2 mL/kg once per day, vehicle group 8/12 eyes) | onset of cataract (conclusion in words) ([1]; galactose-fed rats, oral administration, 20 days)
CC(=O)Nc1nc(CCc2ccc(CCNC(=N)N)cc2)cs1 [test substance 2, N-(4-{2-[4-(2-{[amino(imino)methyl]amino}ethyl)phenyl]ethyl}-1,3-thiazol-2-yl)acetamide] | 2/10 | suppress the onset of cataract | 20 |  | 
CC(=O)Nc1nc(CCc2ccc(CC(=O)NN)cc2)cs1 [test substance 1, N-{4-[2-(4-hydrazinocarbonylmethylphenyl)ethyl]-1,3-thiazol-2-yl}acetamide] | 2/8 | suppress the onset of cataract | 25 | 3/12 eyes | suppresses the onset of cataract
